Measurements from patent US6921806B2, “Plant growth factor” (Kyowa Hakko Kogyo Co. Ltd., priority 1995, dated 2005).
[ ]: non-standard residue; d: D form. sY = N[C@@H](Cc1ccc(OS(=O)(=O)O)cc1)C(=O)O

Tested on: single asparagus cells
Assay: bioassay of the plant growth factors: colony formation frequency of incubated single asparagus cells
Format: cell-based, Asparagus officinalis L.
Conditions: peptide made by synthesizer and enzymatic sulfation
Protocol: Single asparagus cells, as obtained according to the method of Example 4, were implanted in the media, as prepared by the method of Example 5, and incubated with the present plant growth factor in the media. The influence of the plant growth factor on the proliferation of the incubated asparagus cells was determined by measuring the change in the colony formation frequency in each medium. Cells were incubated in a 24-well microtiter plate (IWAKI 3820-024). To each well of the microtiter were added 250 μl of a suspension of single asparagus cells as prepared at a cell density of 2-fold the intended final cell density, 125 μl of the liquid medium having a concentration of 4-fold the intended final concentration, and 125 μl of sterilized distilled water or 125 μl of CM as obtained in Example 6, sterilized through filtration (ADVANTEC DISMIC-13 cp, 0.20 μm) and diluted just before use, and fully stirred. Then, the plates were sealed with vinyl tape in order to prevent vaporization, in which the cells were incubated in the dark at 28° C. with shaking at 120 rpm (TAITEC BR-300L). […] On the basis of the data thus obtained for 3 wells or more, the colony formation frequency (C) and the cell viability (L) were calculated according to the following equations. […] The colony formation frequency for the asparagus cells at each CM concentration was determined. […]

## H-[sY]I[sY]TQ-OH [compound (I-1)]
  biological activity of the synthesized peptide compared with isolated compound (I-1): exhibited the biological activity at the same concentrations
